Laboratory results taken from US11879137B2, “Treatment of type 1 diabetes and autoimmune diseases or disorders” (THE CHILDREN'S MEDICAL CENTER CORPORATION, priority 2017, dated 2024).
Where two headings read alike, the source gives them in different places.

What was measured:
[1] = system: peripheral CD34+ cells; conditions: after mobilization
Description: Data are expressed as mean±standard error of the mean (SEM). Data are representative of at least two independent experiments. *P<0.05; **P<0.01; ***P<0.001. #P<0.05 vs. all
The effect of overcoming PD-L1 deficiency in human HSPCs was tested by using the same agents described herein above (e.g., tested in NOD mice). […] To study the ex vivo immunoregulatory functions of pCD34+, CD34-depleted PBMCs were co-cultured with unmodulated CD34+ or pCD34+ in the presence of insulin-associated autoantigen-2 (I-A2), and the number of IFN-γ-producing cells was quantified in an ELISPOT assay. […] Finally, the effect of plerixafor-mediated mobilization, used in clinic (5, 9), was analyzed on PD-L1 expression in CD34+ cells obtained from 5 T1D patients and 8 healthy controls (Table 10).

[2] = system: NEU1, MTOR, MYC, IGF1R, VEGFA, RB1 in MDA-MB-231 cells; experiment: mRNA of validated miRNA target genes (transfection control) in MDA-MB-231 cells; format: cell-based, human; conditions: VEGFA or RB1 as named for each agent, 48 h after transfection
Description: (§1) MDA-MB-231 breast cancer cells were cultured in DMEM high glucose medium (Gibco, Thermo Fisher Scientific; Waltham, MA USA) supplemented with 10% heat-inactivated fetal calf serum (Gibco, Thermo Fisher Scientific), 100 units/ml penicillin, 100 μg/ml streptomycin, and 2 mM L-glutamine. 2×10^5 cells were seeded in each well of a 6-well plate and transfected with 10 pmol of the miRNA mimic or miRNA mimic negative control, or 100 pmol of the anti-miR or anti-miR negative control (all from Exiqon, Qiagen) using the Lipofectamine RNAiMAX transfection reagent (Invitrogen, Thermo Fisher Scientific) in a final culture medium volume of 2 ml, following manufacturer's instructions. […] Forty-eight hours after transfection, cells were collected from each well for RNA extraction, cell lysate preparation and FACS analysis. RNA was extracted using Direct-zol RNA miniprep plus (Zymo research, Irvine, CA, USA) and RNA quality was checked and then retro-transcribed using RETROscript® Kit (Fisher Scientific) following manufacturer's instructions. Cell lysates were obtained in RIPA buffer (50 mmol/1 Tris-HCl, pH 8.0, 1% Triton-x, 0.5% sodium deoxycholate, 0.1% SDS, 150 mmol/1 sodium chloride) with protease inhibitor cocktail (Roche).
qRT-PCR for PD-L1 analysis was performed on retro-transcribed cDNA using SYBR® Green dye (Life Technologies, Thermo Fisher Scientific). Amplification was performed on a QuantStudio S6 Real Time PCR system (Thermo Fisher Scientific). To confirm a successful transfection, the mRNA level of genes known to be controlled by the targeted miRNAs were evaluated by SYBR® Green dye (Life Technologies, Thermo Fisher Scientific) according to the manufacturer's instructions. Normalized expression values were determined using the ΔΔCt method in treated as compared to negative treated samples, using GAPDH mRNA as endogenous reference. The miRNA-targeted genes tested, along with forward and reverse primer sequences used for their amplification, are listed in Table 13.
To determine if targeting the miRNA network decreases PD-L1 expression in human cancer setting, PD-L1-expressing MDA-MB-231 human breast cancer cells were transfected with a set of miRNA mimics or anti-miRs to either increase or decrease the function of a set of miRNAs not previously known to affect PD-L1 (miR-125b, miR-99a, miR-744, mir-599, miR-511, miR-206, miR-26b). The effect of treatment with miRNA mimics and anti-miRs on the percentage of PD-L1-expressing cells, as well as on PD-L1 mRNA and protein levels, was investigated. miRNA mimic/anti-miR treated-cells were compared to corresponding mimic/anti-miR negative control-treated cells by flow cytometric analysis, Real Time PCR and western blot to assess percentage of PD-L1-expressing cells, PD-L1 mRNA, and PD-L1 protein levels, respectively. A successful miRNA mimic/anti-miR transfection was confirmed by the detection of changed mRNA levels of the validated miRNA targets NEU1 (for miR-125b mimic), MTOR (for miR-99a mimic), MYC (for miR-744 mimic and miR-599 anti-miR), IGF1R (for miR-511 mimic), VEGFA (for miR-206 anti-miR) and RB1 (for miR-26b anti-miR) in treated cells (FIG. 22A). […] Lysates of miR-511 mimic and miR-206 anti-miR treated cells were not available for western blot analysis.

[3] = system: PD-L1 in MDA-MB-231 cells; experiment: PD-L1 protein by western blot in transfected MDA-MB-231 cells; format: cell-based, human; conditions: vs corresponding negative control; 48 h
Description: as §1, with “Cell lysates were obtained in RIPA buffer (50 mmol/1 Tris-HCl, pH 8.0, 1% Triton-x, 0.5% sodium deoxycholate, 0.1% SDS, 150 mmol/1 sodium chloride) with protease inhibitor cocktail (Roche).” left out
Protein concentration in MDA-MB-231 cell lysates was measured. […] Finally, for the quantification of western blot, images of PVDF membranes were analyzed by ImageJ software to quantify size and strength of protein bands. […]

| Compound | percentage of CD34+PD-L1+ cells ([1]; T1D patients) | percentage and absolute number of CD34+ cells ([1]; 5 T1D patients and 8 healthy controls) | percentage of CD34+PD-L1+ cells ([1]; healthy controls) | mRNA levels of the validated miRNA target [2] | PD-L1 protein levels [3] |
| --- | --- | --- | --- | --- | --- |
| c1cc(CN2CCCNCCNCCCNCC2)ccc1CN1CCCNCCNCCCNCC1 [plerixafor] | remained stable | significantly increased | decreased | – | – |
| miR-599 anti-miR: Anti-miR, GUUUGAUAAACUGACACAAC, SEQ ID NO: 6 (listed as RNA, chemistry not given here) | – | – | – | changed | increase |
